# Results published in patent publication US4596893A (priority 1985, dated 1986).
# Columns and labels:
# Assay in all cases: Herbicide activity test in green house
# Assay type in all cases: in vivo
# [1] = system: corn; conditions: dose 1.25 kg/ha, sprayed at 2-4 leaves, evaluated on 14th day
# [2] = system: Italian grass; conditions: dose 1.25 kg/ha, sprayed at 2-4 leaves, evaluated on 14th day
# [3] = system: white mustard; conditions: dose 1.25 kg/ha, sprayed at 2-4 leaves, evaluated on 14th day
# [4] = system: autumn wheat; conditions: dose 1.25 kg/ha, sprayed at 2-4 leaves, evaluated on 14th day
# [5] = system: fat hen; conditions: dose 1.25 kg/ha, sprayed at 2-4 leaves, evaluated on 14th day
# [6] = system: corn; conditions: sprayed at 2-4 leaves, evaluated on 14th day
# Experimental: (§1) In culture dishes white mustard, pig weed, fat hen, autumn wheat, Italian grass and corn seeds were sown. When the seeds were sprouted 10% EC and 10% WSC were prepared from the compounds to be tested, and after dilution with water 0.2% spray was prepared. 2-4 leaves plants were sprayed with this liquid so that for each compound a dose corresponding to 2.5-5-10 kg./ha active ingredient was used. On the 14th day after the treatment the extent of the injury of the plants was evaluated and expressed in %.
# [7] = system: Italian grass; conditions: sprayed at 2-4 leaves, evaluated on 14th day
# Experimental: as §1
# [8] = system: fat hen; conditions: sprayed at 2-4 leaves, evaluated on 14th day
# Experimental: as §1
# [9] = system: pig weed; conditions: sprayed at 2-4 leaves, evaluated on 14th day
# Experimental: as §1
# [10] = system: autumn wheat; conditions: sprayed at 2-4 leaves, evaluated on 14th day
# Experimental: as §1
# [11] = system: white mustard; conditions: sprayed at 2-4 leaves, evaluated on 14th day
# Experimental: as §1
# [12] = system: pig weed; conditions: dose 1.25 kg/ha, sprayed at 2-4 leaves, evaluated on 14th day
SMILES,"extent of the injury of the plants, corn [1] [%]","extent of the injury of the plants, Italian grass [2] [%]","extent of the injury of the plants, white mustard [3] [%]","extent of the injury of the plants, autumn wheat [4] [%]","extent of the injury of the plants, fat hen [5] [%]","extent of the injury of the plants, corn ([6]; dose 2.5 kg/ha) [%]","extent of the injury of the plants, corn ([6]; dose 5.0 kg/ha) [%]","extent of the injury of the plants, Italian grass ([7]; dose 2.5 kg/ha) [%]","extent of the injury of the plants, Italian grass ([7]; dose 5.0 kg/ha) [%]","extent of the injury of the plants, fat hen ([8]; dose 2.5 kg/ha) [%]","extent of the injury of the plants, fat hen ([8]; dose 5.0 kg/ha) [%]","extent of the injury of the plants, pig weed ([9]; dose 2.5 kg/ha) [%]","extent of the injury of the plants, pig weed ([9]; dose 5.0 kg/ha) [%]","extent of the injury of the plants, autumn wheat ([10]; dose 2.5 kg/ha) [%]","extent of the injury of the plants, autumn wheat ([10]; dose 5.0 kg/ha) [%]","extent of the injury of the plants, white mustard ([11]; dose 2.5 kg/ha) [%]","extent of the injury of the plants, white mustard ([11]; dose 5.0 kg/ha) [%]","extent of the injury of the plants, pig weed [12] [%]"
"O=[N+]([O-])c1cc([N+](=O)[O-])c(O)c(C(F)(F)F)c1 [2-trifluoromethyl-4,6-dinitro-phenol, 2-Trifluoromethyl-4,6-dinitro-phenol]",0,0,45,0,75,5,15,10,30,90,100,85,100,5,10,75,95,50
"O=[N+]([O-])c1cc([N+](=O)[O-])c(O)c(C(F)(F)F)c1 [2-trifluoromethyl-4,6-dinitro-phenol-K]",0,0,65,0,70,10,15,10,15,90,100,85,100,0,15,75,90,45
"O=[N+]([O-])c1cc([N+](=O)[O-])c(O)c(C(F)(F)F)c1 [2-trifluoromethyl-4,6-dinitro-phenol-Na]",0,0,50,0,70,10,15,10,15,90,100,85,100,0,15,80,100,60
"O=[N+]([O-])c1cc([N+](=O)[O-])c(O)c(C(F)(F)F)c1 [2-trifluoromethyl-4,6-dinitro-phenol-diethanol-amine]",0,0,40,0,70,–,10,–,10,75,80,60,85,–,10,60,80,50
"CNC.O=[N+]([O-])c1cc([N+](=O)[O-])c(O)c(C(F)(F)F)c1 [2-trifluoromethyl-4,6-dinitro-phenol-dimethyl-amine]",0,0,45,0,70,0,10,0,20,75,85,65,80,0,10,55,75,50
"CCC(=O)Oc1c([N+](=O)[O-])cc([N+](=O)[O-])cc1C(F)(F)F [2-trifluoromethyl-4,6-dinitro-phenol-ethyl carbonyl]",0,0,40,0,60,0,10,0,10,70,80,60,80,0,10,50,80,40
"CC(=O)Oc1c([N+](=O)[O-])cc([N+](=O)[O-])cc1C(F)(F)F [2-trifluoromethyl-4,6-dinitrophenol methyl carbonyl]",0,0,40,0,70,0,10,10,20,90,100,80,95,0,10,70,90,50
